Broadly, the IC50 is the concentration needed to halve the response being measured. Usually IC90 stands for the point of the concentration-response curve where the effect stands at 90%.

Series [1] relates to BaF3. The series can be described thus: Cytotoxicity against mouse BaF3 cells expressing EGFR L858R/T790M/C797S mutant assessed as reduction in cell viability measured after 72 hrs by cell titre glo luminescence assay. It is filed as functional, cell-based. As to conditions: for IC50: BaF3, 72 h; for IC90: BaF3, time 72 hrs.
Series [2] deals with BaF3. The series can be described thus: Cytotoxicity against mouse BaF3 cells harboring EGFR L858R/C797S mutant assessed as reduction in cell viability measured after 72 hrs by cell titre glo luminescence assay. Conditions: for IC50: BaF3, 72 h; for IC90: BaF3, time 72 hrs. The series is classed as functional, cell-based.
Series [3] has as its target Epidermal growth factor receptor (Homo sapiens, UniProt P00533, C797S/L858R/T790M).
Series [4] concerns the target Epidermal growth factor receptor (Homo sapiens, UniProt P00533, C797S/L858R).
A short description of series [5]: Intrinsic clearance in mouse liver hepatocytes measured per 10^6 cells incubated upto 2 hrs by LC-MS/MS analysis. As to conditions: read-out: CLH. It is filed as ADME, cell-based, Hepatocyte.
Series [6] can be described thus: Intrinsic clearance in human liver hepatocytes measured per 10^6 cells incubated upto 2 hrs by LC-MS/MS analysis. The series is classed as ADME, cell-based, Hepatocyte. Conditions: read-out: CLH.
In series [7] the test system is BaF3. The series can be described thus: Antitumor activity against mouse BaF3 cells harboring EGFR L858R/C797S mutant allografted in Balb/c nude mouse assessed as in tumor growth inhibition at 30 mg/kg administered twice daily measured on day 20. As to conditions: BaF3, 480 h, time 20 day, read-out: TGI. The series is classed as functional.

Sequence of Epidermal growth factor receptor (Homo sapiens, UniProt P00533, C797S/L858R/T790M) (P00533 25-1210 T790M/C797S/L858R limits assumed): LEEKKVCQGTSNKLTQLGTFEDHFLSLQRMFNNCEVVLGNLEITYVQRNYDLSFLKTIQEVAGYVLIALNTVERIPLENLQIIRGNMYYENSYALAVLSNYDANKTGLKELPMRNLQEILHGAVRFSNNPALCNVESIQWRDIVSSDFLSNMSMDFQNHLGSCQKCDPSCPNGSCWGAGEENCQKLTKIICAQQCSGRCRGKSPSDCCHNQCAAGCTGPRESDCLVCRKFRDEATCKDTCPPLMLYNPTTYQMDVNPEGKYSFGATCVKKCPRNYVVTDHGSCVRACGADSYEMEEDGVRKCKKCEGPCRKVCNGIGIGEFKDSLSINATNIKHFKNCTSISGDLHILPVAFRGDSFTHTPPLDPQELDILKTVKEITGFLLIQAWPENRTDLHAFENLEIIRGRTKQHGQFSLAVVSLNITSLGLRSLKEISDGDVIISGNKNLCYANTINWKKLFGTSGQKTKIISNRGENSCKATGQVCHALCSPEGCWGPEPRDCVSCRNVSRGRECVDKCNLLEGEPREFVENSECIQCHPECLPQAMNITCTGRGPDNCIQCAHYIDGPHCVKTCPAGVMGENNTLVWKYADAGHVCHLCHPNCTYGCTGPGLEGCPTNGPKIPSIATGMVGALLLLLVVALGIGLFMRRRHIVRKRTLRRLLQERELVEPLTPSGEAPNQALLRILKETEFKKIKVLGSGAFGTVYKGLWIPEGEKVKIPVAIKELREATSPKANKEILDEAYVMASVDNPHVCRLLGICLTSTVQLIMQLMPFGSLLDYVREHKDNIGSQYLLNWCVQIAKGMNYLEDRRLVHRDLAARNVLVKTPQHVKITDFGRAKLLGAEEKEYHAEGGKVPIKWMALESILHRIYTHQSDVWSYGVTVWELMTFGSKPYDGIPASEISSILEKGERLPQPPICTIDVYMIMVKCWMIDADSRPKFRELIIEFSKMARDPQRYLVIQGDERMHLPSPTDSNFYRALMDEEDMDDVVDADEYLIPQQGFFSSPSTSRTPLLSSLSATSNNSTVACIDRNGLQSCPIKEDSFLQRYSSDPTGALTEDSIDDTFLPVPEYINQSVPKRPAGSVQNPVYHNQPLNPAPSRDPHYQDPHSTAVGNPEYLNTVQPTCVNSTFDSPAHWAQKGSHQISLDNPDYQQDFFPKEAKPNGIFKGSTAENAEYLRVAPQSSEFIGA
Sequence of Epidermal growth factor receptor (Homo sapiens, UniProt P00533, C797S/L858R) (P00533 25-1210 C797S/L858R limits assumed): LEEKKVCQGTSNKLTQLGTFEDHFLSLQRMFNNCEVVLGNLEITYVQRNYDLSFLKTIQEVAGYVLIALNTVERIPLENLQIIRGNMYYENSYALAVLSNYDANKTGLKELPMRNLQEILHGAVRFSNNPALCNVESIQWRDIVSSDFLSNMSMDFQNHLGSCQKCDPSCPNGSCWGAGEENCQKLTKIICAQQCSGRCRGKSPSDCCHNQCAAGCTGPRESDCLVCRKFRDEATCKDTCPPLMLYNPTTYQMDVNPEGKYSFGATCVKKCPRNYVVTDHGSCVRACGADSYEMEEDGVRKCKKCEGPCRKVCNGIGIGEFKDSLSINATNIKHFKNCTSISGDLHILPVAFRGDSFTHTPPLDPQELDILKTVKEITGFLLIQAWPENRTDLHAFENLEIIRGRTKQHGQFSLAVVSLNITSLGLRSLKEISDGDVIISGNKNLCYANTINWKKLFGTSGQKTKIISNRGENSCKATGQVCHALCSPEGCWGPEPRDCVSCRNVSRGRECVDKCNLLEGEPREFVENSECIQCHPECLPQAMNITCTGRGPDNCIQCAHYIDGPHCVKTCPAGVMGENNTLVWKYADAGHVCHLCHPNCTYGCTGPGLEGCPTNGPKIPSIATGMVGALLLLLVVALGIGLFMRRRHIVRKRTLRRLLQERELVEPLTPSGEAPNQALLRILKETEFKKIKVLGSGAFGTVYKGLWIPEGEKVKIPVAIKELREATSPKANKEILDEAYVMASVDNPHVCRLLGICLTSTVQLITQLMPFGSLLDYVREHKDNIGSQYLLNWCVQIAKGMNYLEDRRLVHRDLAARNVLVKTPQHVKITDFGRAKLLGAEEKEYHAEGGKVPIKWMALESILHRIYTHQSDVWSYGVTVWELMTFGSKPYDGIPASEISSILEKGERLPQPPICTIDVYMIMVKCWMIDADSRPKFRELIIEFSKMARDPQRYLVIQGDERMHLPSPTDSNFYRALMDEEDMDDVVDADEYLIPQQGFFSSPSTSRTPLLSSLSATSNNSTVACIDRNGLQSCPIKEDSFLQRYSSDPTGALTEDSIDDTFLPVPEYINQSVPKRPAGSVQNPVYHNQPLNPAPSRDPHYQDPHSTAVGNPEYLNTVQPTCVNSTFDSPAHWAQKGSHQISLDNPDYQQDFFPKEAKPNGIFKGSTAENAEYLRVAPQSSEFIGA

For the compound `O=C(Nc1nccs1)C(c1ncn2c1CCC2)N1Cc2ccc(C#Cc3cccnc3)cc2C1=O` (configuration not stated), the IC50 is 1200 nM in the series with BaF3 [1], > 10000 nM with BaF3 [2], 460 nM in series [3] and > 10000 nM in series [4]. Besides, the concentration for an effect of 90% (IC90) was 3000 nM in the series on BaF3 [1] and > 10000 nM with BaF3 [2].
Turning to `O=C(Nc1nccs1)C(c1ncn2c1CCC2)N1Cc2c(F)cc(C#Cc3cccnc3)cc2C1=O` (configuration not stated), the IC50 with BaF3 [1] stood at 12 nM; in the series on BaF3 [2], 1800 nM; in series [3], 7 nM; in series [4], 129 nM. The IC90 with BaF3 [1] worked out at 30 nM; in the series on BaF3 [2], 7000 nM.
`O=C(Nc1nccs1)C(c1n[nH]c2c1CCC2)N1Cc2ccccc2C1=O` (configuration not stated): the IC50 in series [3] is 23 nM; in series [4], 3200 nM.
With `O=C(Nc1nccs1)C(c1ncn2c1CCC2)N1Cc2ccc(C#Cc3ccc(CN4CCC(O)CC4)cc3)cc2C1=O` (configuration not stated), the IC50 with BaF3 [1] was 10 nM; in the series on BaF3 [2] it was 1250 nM; in series [3] it was 7 nM; in series [4] it was 297 nM. In addition, the 90% effect concentration (IC90) was 24 nM in the series on BaF3 [1] and 3250 nM with BaF3 [2].
`O=C(Nc1nccs1)C(c1ncn2c1CCC2)N1Cc2ccc(C#Cc3ccccc3)cc2C1=O` (configuration not stated): in the series on BaF3 [2], the IC50 was > 10000 nM and the IC90 was > 10000 nM.
Consider `O=C(Nc1nccs1)C(c1ncn2c1C[C@@H](F)C2)n1cc2c(Cl)cc(-c3ccc(N4CCOCC4)cc3)c(Cl)c2n1` (mixture of isomers), for which the figures for the IC50 (in the series on BaF3 [2]; in series [3]; in series [4]) were 12 nM, 6 nM and 17 nM, respectively.
`CCN1CCN(c2ccc(-c3cc(F)c4cn(C(C(=O)Nc5nccs5)c5ncn6c5CCC6)nc4c3)cc2)CC1` (configuration not stated): the IC50 came out at 13 nM in the series on BaF3 [1], 650 nM in the series with BaF3 [2], 7 nM in series [3] and 91 nM in series [4]. Also, the values for the IC90 in the series on BaF3 [1] and in the series with BaF3 [2] were 30 nM and 2600 nM, respectively.
For `O=C(Nc1nccs1)C(c1ncn2c1CCC2)N1Cc2c(F)cc(C#Cc3ccc(CN4CCC(CO)CC4)cc3)cc2C1=O` (configuration not stated), the IC50 with BaF3 [1] was 1 nM; with BaF3 [2] it was 16 nM; in series [4], 12 nM. In addition, the IC90 in the series with BaF3 [1] was determined as 2 nM; with BaF3 [2], 47 nM.
Consider `O=C(Nc1nccs1)C(c1ncn2c1CCC2)N1Cc2c(Cl)cccc2C1=O` (configuration not stated), for which the results for the hepatocyte CLint in series [5] and in series [6] were 68 µL/min/1e6 cells and 7 µL/min/1e6 cells, respectively. In addition, the IC50 in series [3] amounted to 4 nM; in series [4], 183 nM.
For the compound `O=C(Nc1nccs1)C(c1ncn2c1CCC2)n1cc2c(F)cc(C#Cc3ccc(CN4CCC(O)CC4)cc3)cc2n1` (configuration not stated), the IC50 stood at 9 nM with BaF3 [1], 800 nM in the series with BaF3 [2], 6 nM in series [3] and 106 nM in series [4].
On to `O=C(Nc1nccs1)C(c1ncn2c1CCC2)N1Cc2ccc(C#Cc3ccc(CN4CCCCC4)cc3)cc2C1=O` (configuration not stated), for which the hepatocyte CLint amounted to 6 µL/min/1e6 cells in series [5] and 6.5 µL/min/1e6 cells in series [6]. For the same compound, the IC50 was 17 nM with BaF3 [1], 1300 nM in the series on BaF3 [2], 16 nM in series [3] and 342 nM in series [4]. The IC90 with BaF3 [1] was determined as 42 nM; in the series with BaF3 [2], 3100 nM.
On to `O=C(Nc1nccs1)C(c1ncn2c1CCC2)N1Cc2c(cc(C#Cc3ccc(CN4CCC(CO)CC4)cc3)cc2C(F)F)C1=O` (configuration not stated), for which the hepatocyte CLint in series [5] stood at 33 µL/min/1e6 cells; in series [6], 3.1 µL/min/1e6 cells. Further, the IC50 in the series on BaF3 [1] is 1 nM; with BaF3 [2], 4 nM; in series [3], 4 nM; in series [4], 13 nM. The figures for the IC90 in the series on BaF3 [1] and with BaF3 [2] were 3 nM and 12 nM, respectively.
As for `O=C(Nc1nccs1)C(c1ncn2c1CCC2)N1Cc2ccccc2C1=O` (configuration not stated), the IC50 in series [3] amounted to 16 nM; in series [4], 1700 nM.
For `O=C(Nc1nccs1)C(c1ncn2c1CCC2)N1Cc2c(cc(C#Cc3ccc(CN4CCC(CO)CC4)cc3)cc2C(F)(F)F)C1=O` (configuration not stated), the hepatocyte CLint in series [5] was 50 µL/min/1e6 cells; in series [6], 3.3 µL/min/1e6 cells. The IC50 with BaF3 [1] was found to be 0.5 nM; with BaF3 [2] it was 2 nM; in series [3] it was 3 nM; in series [4], 26 nM. Moreover, the concentration for an effect of 90% (IC90) with BaF3 [1] was 1 nM; with BaF3 [2], 5 nM.
Take `CCN1CCN(c2ccc(-c3cc(Cl)c4cn(C(C(=O)Nc5nccs5)c5ncn6c5CCC6)nc4c3Cl)cc2)CC1` (configuration not stated): the IC50 with BaF3 [1] was found to be 13 nM; with BaF3 [2] it was 26 nM; in series [4], 22 nM. Besides, the IC90 came out at 33 nM in the series with BaF3 [1] and 70 nM in the series with BaF3 [2].
`Cc1c(-c2ccc(N3CCOCC3)cc2)cc(C(F)F)c2cn(C(C(=O)Nc3nccs3)c3ncn4c3C[C@@H](F)C4)nc12` (mixture of isomers): the IC50 in the series on BaF3 [2] is 4 nM; in series [3] it was 7 nM.
`Cc1c(-c2ccc(N3CCOCC3)cc2)cc(C(F)F)c2cn(C(C(=O)Nc3nccs3)c3ncn4c3CCC43CC3)nc12` (configuration not stated): the concentration for half-maximal inhibition (IC50) in the series with BaF3 [2] is 3 nM; in series [3] it was 10 nM. For the same compound, the inhibition in vivo at 30 mg/kg in the series with BaF3 [7] is 26%.
Consider `CC1(C)CCc2c(C(C(=O)Nc3nccs3)N3Cc4c(cc(C#Cc5ccc(CN6CCC(CO)CC6)cc5)cc4C(F)F)C3=O)ncn21` (configuration not stated), for which the figures for the hepatocyte CLint in series [5] and in series [6] were 19 µL/min/1e6 cells and 5 µL/min/1e6 cells, respectively. The IC50 was determined as 1 nM with BaF3 [1], 1 nM with BaF3 [2], 4 nM in series [3] and 12 nM in series [4]. The IC90 in the series with BaF3 [1] came to 3 nM; in the series with BaF3 [2], 2 nM.
`O=C(Nc1nccs1)C(c1ncn2c1CCC2)N1Cc2c(F)cc(C#Cc3ccc(CN4CCCCC4)cc3)cc2C1=O` (configuration not stated): the IC50 in the series with BaF3 [1] was found to be 10 nM; in the series with BaF3 [2] it was 207 nM; in series [3], 7 nM; in series [4], 54 nM. The IC90 in the series on BaF3 [1] was 24 nM; with BaF3 [2], 711 nM.
`CCN1CCN(c2ccc(-c3cc(Cl)c4cn(C(C(=O)Nc5nccs5)c5ncn6c5C[C@@H](F)C6)nc4c3Cl)cc2)CC1` (mixture of isomers): the IC50 in the series with BaF3 [1] was determined as 8 nM; in the series on BaF3 [2], 15 nM; in series [4] it was 15 nM. In addition, the IC90 in the series with BaF3 [1] turned out to be 19 nM; in the series on BaF3 [2], 42 nM.
Take `O=C(Nc1nccs1)C(c1cc(F)ccc1O)N1Cc2ccccc2C1=O` (configuration not stated): the values for the hepatocyte CLint in series [5] and in series [6] were 27 µL/min/1e6 cells and 67 µL/min/1e6 cells, respectively.
Turning to `Cc1[nH]nc(C(C(=O)Nc2nccs2)N2Cc3ccccc3C2=O)c1C` (configuration not stated), the IC50 in series [3] and in series [4] was > 10000 nM in each case.
`O=C(Nc1nccs1)C(c1ncn2c1CCC2)N1Cc2c(F)cc(C#Cc3ccc(CN4CCC(O)CC4)cc3)cc2C1=O` (configuration not stated): the hepatocyte CLint was 3.6 µL/min/1e6 cells in series [5] and 1.6 µL/min/1e6 cells in series [6]. Further, the half-maximal inhibitory concentration (IC50) in the series with BaF3 [1] amounted to 5 nM; with BaF3 [2], 72 nM; in series [3], 5 nM; in series [4], 33 nM. In addition, the IC90 in the series with BaF3 [1] was 13 nM; in the series on BaF3 [2], 285 nM.
Consider `Cc1c(C#Cc2ccc(CN3CCC(CO)CC3)cc2)cc(C(F)F)c2cn(C(C(=O)Nc3nccs3)c3ncn4c3CCC4)nc12` (configuration not stated), for which the IC50 in the series on BaF3 [1] was 1 nM; in the series on BaF3 [2], 2 nM; in series [3], 3 nM.
On to `O=C(Nc1nccs1)C(c1ncn2c1C[C@@H](F)C2)n1cc2c(Cl)cc(-c3ccc(N4CCN(C5CC5)CC4)cc3)c(Cl)c2n1` (mixture of isomers), for which the IC50 in the series on BaF3 [1] worked out at 23 nM; in the series with BaF3 [2], 36 nM; in series [3], 17 nM; in series [4], 30 nM. For the same compound, the IC90 was determined as 55 nM in the series with BaF3 [1] and 104 nM in the series with BaF3 [2].
For the compound `O=C(Nc1nccs1)C(c1cc(F)ccc1O)N1Cc2ccc(-c3ccc(N4CCNCC4)cc3)cc2C1=O` (configuration not stated), the IC50 in the series on BaF3 [1] came out at 30 nM; in the series on BaF3 [2] it was 1550 nM. The IC90 in the series on BaF3 [1] is 40 nM; in the series on BaF3 [2] it was 7280 nM.
Turning to `O=C(Nc1nccs1)C(c1cc[nH]n1)N1Cc2ccccc2C1=O` (configuration not stated), the IC50 in series [3] is 938 nM; in series [4], > 10000 nM.
`O=C(Nc1nccs1)C(c1ncn2c1CCC2)n1cc2c(Cl)cc(-c3ccc(N4CCOCC4)cc3)c(Cl)c2n1` (configuration not stated): the values for the IC50 (with BaF3 [1]; in the series on BaF3 [2]; in series [4]) were 31 nM, 46 nM and 33 nM, respectively. Also, the IC90 was 74 nM in the series on BaF3 [1] and 126 nM with BaF3 [2].
In the case of `Nc1ccc(C#Cc2cc(F)c3c(c2)C(=O)N(C(C(=O)Nc2nccs2)c2ncn4c2CCC4)C3)cn1` (configuration not stated), the IC50 is 200 nM in the series with BaF3 [1], > 10000 nM with BaF3 [2], 116 nM in series [3] and 1100 nM in series [4]. Also, the IC90 in the series with BaF3 [1] is 490 nM; in the series with BaF3 [2] it was > 10000 nM.
